From patent publication US8003658B2, “Quinazoline derivatives for inhibiting cancer cell growth and method for the preparation thereof” (Hanmi Holdings Co., Ltd., priority 2004, dated 2011)
Where two headings read alike, the source gives them in different places.

Tests used:
[1] = test system: A431 (ATCC: CRL-1555); experiment: Test of cancer cell growth inhibition (SRB), A431; details: read-out: IC50 A431
[2] = test system: SW-620 (ATCC: CCL-227); experiment: Test of cancer cell growth inhibition (SRB), SW-620; details: Homo sapiens, SW-620, 72 h, read-out: IC50 SW-620
[3] = test system: SK-Br3 (ATCC: HTB-30); experiment: Test of cancer cell growth inhibition (SRB), SK-Br3; details: read-out: IC50 SK-Br-3
[4] = molecular target: EGFR (EGFR type 1 kinase) (Homo sapiens, UniProt P00533); experiment: Inhibition of EGFR enzyme (fluorescence polarization kinase assay)
Procedure: 10 μl of EGFR (EGFR type 1 kinase) was added to each well of a 96-well microplate.

[5] = EGFR overexpressed A431, 72 hours, SRB
[6] = Erb-B2 overexpressed SK-Br3, 72 hours, SRB
[7] = read-out: IC50 EGFR, Poly (Glu, Tyr) 4:1 and ATP, 1 hour room temperature, FP readout

Compound	IC50 ([1]; Homo sapiens, A-431, 72 h) [nM]	IC50 [2] [nM]	IC50 ([3]; Homo sapiens, SK-BR-3, 72 h) [nM]	IC50 [4] [nM]	IC50 [1, 5] [nM]	IC50 [3, 6] [nM]	IC50 [4, 7] [nM]
C=CC(=O)NCCC(=O)Nc1ccc2ncnc(Nc3ccc(OCc4cccc(F)c4)c(Cl)c3)c2c1 [Example 22, N-(2-{4-[3-chloro-4-(3-fluoro-benzyloxy)-phenylamino]-quinazolin-6-ylcarbamoyl}-ethyl)-acrylamide]	58	> 10000	3	3			
C=CC(=O)N1CCC[C@H]1C(=O)Nc1ccc2ncnc(Nc3ccc(OCc4ccccn4)c(Cl)c3)c2c1 [Example 145, (2S)-1-acryloyl-pyrrolidine-2-carboxylic acid {4-[3-chloro-4-(pyridin-2-ylmethoxy)-phenylamino]-quinazolin-6-yl}-amide]			25	4	32		
CC#CC(=O)N1CCC[C@H]1C(=O)Nc1cc2c(Nc3ccc(OCc4ccccn4)c(Cl)c3)ncnc2cc1OC [Example 146, (2S)-1-(1-oxo-butyn-2-yl)-pyrrolidine-2-carboxylic acid {4-[3-chloro-4-(pyridin-2-ylmethoxy)-phenylamino]-7-methoxy-quinazolin-6-yl}-amide]					32	40	4
C=CC(=O)N1CCC[C@H]1C(=O)Nc1ccc2ncnc(Nc3ccc(OCc4cccc(C)n4)c(Cl)c3)c2c1 [Example 147, (2S)-1-acryloyl-pyrrolidine-2-carboxylic acid {4-[3-chloro-4-(6-methyl-pyridin-2-ylmethoxy)-phenylamino]-quinazolin-6-yl}-amide]	21		19	2			
C=CC(=O)N1CCC[C@H]1C(=O)Nc1cc2c(Nc3ccc(OCc4ccccn4)c(Cl)c3)ncnc2cc1OC [Example 166, (2S)-1-acryloyl-pyrrolidine-2-carboxylic acid {4-[3-chloro-4-(pyridin-2-ylmethoxy)-phenylamino]-7-methoxy-quinazolin-6-yl}-amide]				3	27	3	
C=CC(=O)NCCC(=O)Nc1cc2c(Nc3ccc(OCc4ccccn4)c(Cl)c3)ncnc2cc1OC [Example 167, N-(2-{4-[3-chloro-4-(pyridin-2-ylmethoxy)-phenylamino]-7-methoxy-quinazolin-6-ylcarbamoyl}-ethyl)-acrylamide]	17		4	2			
C=CC(=O)NCCC(=O)Nc1cc2c(Nc3ccc(OCc4ccccn4)c(C)c3)ncnc2cc1F [Example 178, N-(2-{7-fluoro-4-[3-methyl-4-(pyridin-2-ylmethoxy)-phenylamino]-quinazolin-6-ylcarbamoyl}-ethyl)-acrylamide]	50		3	4			
C=CC(=O)N[C@H](C)C(=O)Nc1cc2c(Nc3ccc(OCc4ccccn4)c(Cl)c3)ncnc2cc1OC [Example 189, (1R)—N-(1-{4-[3-chloro-4-(pyridin-2-ylmethoxy)-phenylamino]-7-methoxy-quinazolin-6-ylcarbamoyl}-ethyl)-acrylamide]	9		2	1			
C=CC(=O)N[C@@H](C)C(=O)Nc1cc2c(Nc3ccc(OCc4ccccn4)c(Cl)c3)ncnc2cc1OC [Example 190, (1S)—N-(1-{4-[3-chloro-4-(pyridin-2-ylmethoxy)-phenylamino]-7-methoxy-quinazolin-6-ylcarbamoyl}-ethyl)-acrylamide]	13		6	2			
C=CC(=O)N[C@@H](CC)C(=O)Nc1cc2c(Nc3ccc(OCc4ccccn4)c(Cl)c3)ncnc2cc1OC [Example 205, (2S)-2-acryloylamino-N-{4-[3-chloro-4-(pyridin-2-ylmethoxy)-phenylamino]-7-methoxy-quinazolin-6-yl}-butyramide]	17		19	2			
C=CC(=O)N[C@H](C)C(=O)Nc1cc2c(Nc3ccc(OCc4ccccn4)c(Cl)c3)ncnc2cc1OCCOC [Example 208, (1R)—N-(1-{4-[3-chloro-4-(pyridin-2-ylmethoxy)-phenylamino]-7-(2-methoxy-ethoxy)-quinazolin-6-ylcarbamoyl}-ethyl)-acrylamide]	11		3	2			
C=CC(=O)NCC(=O)Nc1cc2c(Nc3ccc(OCc4cccc(F)c4)c(Cl)c3)ncnc2cc1OC [Example 211, N-({4-[3-chloro-4-(3-fluoro-benzyloxy)-phenylamino]-7-methoxy-quinazolin-6-ylcarbamoyl}-methyl)-acrylamide]	16		6	2			
C=CC(=O)NCC(=O)Nc1cc2c(Nc3ccc(OCc4cccc(F)c4)c(Cl)c3)ncnc2cc1OCCOC [Example 217, N-({4-[3-chloro-4-(3-fluoro-benzyloxy)-phenylamino]-7-(2-methoxyethoxy)-quinazolin-6-ylcarbamoyl}-methyl)-acrylamide]	14		3	2			
C=CC(=O)NCC(=O)Nc1cc2c(Nc3ccc(OCc4ccccn4)c(Cl)c3)ncnc2cc1OCCOC [Example 218, N-({4-[3-chloro-4-(pyridin-2-ylmethoxy)-phenylamino]-7-(2-methoxyethoxy)-quinazolin-6-ylcarbamoyl}-methyl)-acrylamide]	16		4	2			
C=CC(=O)N[C@@H](C)C(=O)Nc1cc2c(Nc3ccc(OCc4ccccn4)c(Cl)c3)ncnc2cc1OCCCN1CCOCC1 [Example 219, (1S)—N-(1-{4-[3-chloro-4-(pyridin-2-ylmethoxy)-phenylamino]-7-(3-morpholin-4-yl-propoxy)-quinazolin-6-ylcarbamoyl}-ethyl)-acrylamide]	17		7	2			
(1S)—N-(1-{4-[3-chloro-4-(pyridin-2-ylmethoxy)-phenylamino]-7-methoxy-quinazolin-6-ylcarbamoyl}-ethyl)-acrylamide [Example 216]					13	8	2
